Reference: PMC2953793 (Cancer chemotherapy and pharmacology, 2009)
Several values for one entry are separate records, joined by “and”; a condition that tells them apart may be missing. Equal entries are not always repeated. Where two headings read alike, the source gives them in different places.

Experiments:
[1] = tested on: human colon cancer and lung cancer xenograft models; conditions: human colon cancer (ref 12) and lung cancer xenograft models (ref 1); cited from earlier work
PARP [2] = tested on: PARP
[3] = CD-1 mice; cited from earlier work
PARP [4] = conditions: phase 0 study, National Cancer Institute; single oral dose of 25 or 50 mg; cited from earlier work
PARP [5] = conditions: cited from earlier work
[6] = individual animals, single 5 mg/kg dose, 5 mg/kg
[7] = individual animals, single 5 mg/kg dose, model parameter, 5 mg/kg
[8] = mean of three animals, single 5 mg/kg dose, model parameter

C[C@]1(c2nc3c(C(N)=O)cccc3[nH]2)CCCN1 [ABT-888]
V1/F model-estimated apparent volume of distribution [6]: 40.0 L/kg and 24.2 L/kg
t1/2P model-estimated plasma half-life [6]: 3.9 h and 4.3 h
K12 rate constant for transfer from plasma to CSF [7]: 7e-06 h⁻¹ and 4.7e-06 h⁻¹ and 1.65e-05 h⁻¹
K21 rate constant for transfer from CSF to plasma [7]: 0.805 h⁻¹ and 0.420 h⁻¹ and 0.913 h⁻¹
Ka absorption rate constant [7]: 12.5 h⁻¹ and 53.5 h⁻¹ and 44.2 h⁻¹
Ke plasma elimination rate constant [7]: 0.18 h⁻¹ and 0.16 h⁻¹
τ time-delay for absorption of oral drug [7]: 0.76 h and 0.78 h and 2.75 h
Vd/F (male, rhesus monkey, plasma, po, 5 mg/kg, V1/F model-estimated apparent volume of distribution, individual animals, single 5 mg/kg dose): 41.5 L/kg
K12 rate constant for transfer from plasma to CSF [8]: 9.4e-06 h⁻¹
K21 rate constant for transfer from CSF to plasma [8]: 0.71 h⁻¹
Ka absorption rate constant [8]: 36.7 h⁻¹
τ time-delay for absorption of oral drug [8]: 1.43 h
time delay for absorption (range across animals, oral 5 mg/kg): 46 to 165 min
potentiation of radiation [1]: potentiates radiation
% PARP inhibition (PARP [2]; individual animals, PBMCs, 2 h post versus pre-treatment, single oral 5 mg/kg): 52% and 71% and 78%
reduction of PARP activity in PBMCs compared with pre-treatment levels (PARP [2]; mean ± SD of three animals, 2 h after a single dose): 67 ± 13%
PARP inhibition in NHP PBMCs (PARP [2]; range across animals, 2 h after single oral dose 5 mg/kg): 52–78%
accumulation in intracranial tumors versus normal brain [3]: preferentially accumulate in intracranial tumors versus normal brain
PARP inhibition in PBMCs and biopsied tumors (PARP [4]): > 90%
concentrations required for ex vivo PARP inhibition in PBMCs (PARP [5]): 0.1 to 0.3 µM
